# Test results published in patent publication US20260224526A1, “SALT OF DIPEPTIDE COMPOUND, PREPARATION METHOD THEREOF, AND USE THEREOF” (ZHEJIANG HUAHAI PHARMACEUTICAL CO., LTD., priority 2023, published 2026).
# Counter-ions that a name gives are not always drawn. Like-named read-outs stand apart in the source and are kept apart here.
# How the values were obtained:
# [1] = Solubility; assay type: physicochemical
# [2] = Blood drug level in rats model of deep vein thrombosis; assay type: in vivo, SD rats
# [3] = Moisture adsorption content / hygroscopicity; assay type: physicochemical
# [4] = pKa; assay type: physicochemical
# [5] = DVS (Dynamic Vapor Sorption) water absorption; assay type: physicochemical
# [6] = system: deep vein thrombosis; assay: Rats model of deep vein thrombosis; assay type: in vivo, SD rats; conditions: for antithrombotic efficacy, Form I and dabigatran etexilate compared: at the same dose, oral
# Excerpt: Experimental animals: SD rats (body weight 220 to 250 g, sex: male)
# The thrombus was removed and weighed.
# [7] = Partition coefficient; assay type: physicochemical
# [8] = Form III stability: mechanical milling and storage at 60° C./sealed condition; assay type: physicochemical
# [9] = intravenous infusion of 0.1 mg/kg/h in rats
smiles,measurement,setting,value
CCCCCCOC(=O)NC(=N)c1ccc(CNC(=O)[C@@H]2CCCN2C(=O)[C@@H](CC(C)C)NCC(=O)OCC)cc1 [Form I],solubility,"[1]; BA, organic solvent or mixture, read-out: Solubility",< 0.3 mg/mL
same,solubility,[1]; acetonitrile and dichloromethane,"9.0, 10.0, 11.0, 12.0 and 13.0), readily soluble"
same,solubility,"[1]; buffer solutions with different pH values (1.2, 2.0, 3.0, 4.0, 5.0, 6.0, 7.0, 8.0, 9.0, 10.0, 11.0, 12.0 and 13.0)",Highly soluble in buffer solutions with different
same,solubility,"[1]; organic solvent or mixture, AC (Acetic acid), read-out: Solubility",> 250 mg/mL
same,solubility,"[1]; organic solvent or mixture, ACN (Acetonitrile), read-out: Solubility",> 250 mg/mL
same,solubility,"[1]; organic solvent or mixture, DMSO (Dimethyl sulfoxide), read-out: Solubility",> 250 mg/mL
same,solubility,"[1]; organic solvent or mixture, Diox (1,4-Dioxane), read-out: Solubility",~125 mg/mL
same,solubility,"[1]; organic solvent or mixture, EtOH (Ethanol), read-out: Solubility",> 250 mg/mL
same,solubility,"[1]; organic solvent or mixture, Hept (n-Heptane), read-out: Solubility",< 0.3 mg/mL
same,solubility,"[1]; organic solvent or mixture, IPA (Isopropyl alcohol), read-out: Solubility",~167 mg/mL
same,solubility,"[1]; organic solvent or mixture, IPAc (Isopropyl acetate), read-out: Solubility",~0.5 mg/mL
same,solubility,"[1]; organic solvent or mixture, MEK (Methyl ethyl ketone), read-out: Solubility",~1.6 mg/mL
same,solubility,"[1]; organic solvent or mixture, MTBE (Methyl tert-butyl ether), read-out: Solubility",< 0.3 mg/mL
same,solubility,"[1]; organic solvent or mixture, NBA (n-Butanol), read-out: Solubility",~167 mg/mL
same,solubility,"[1]; organic solvent or mixture, THF (Tetrahydrofuran), read-out: Solubility",~11.1 mg/mL
same,solubility,"[1]; organic solvent or mixture, Tol (Toluene), read-out: Solubility",< 0.3 mg/mL
same,solubility,"[1]; water, read-out: Solubility",> 250 mg/mL
same,blood drug levels of compound V,[2]; oral administration of 2.5 mg/kg of Form I to rats,190.1 ng/mL
same,blood drug levels of compound V,[2]; oral administration of 5 mg/kg of Form I to rats,181.3 ng/mL
same,blood drug levels of compound V,[2]; oral administration of 10 mg/kg of Form I to rats,341.9 ng/mL
same,blood drug levels of compound V,[2]; oral administration of 20 mg/kg of Form I to rats,609.7 ng/mL
same,Hygroscopicity,[3],Hygroscopic
same,pKa1,[4],4.94
same,pKa2,[4],5.54
same,pKa3,[4],10.61
same,form of sample after DVS test,[5]; after DVS test,converted to amorphous form
same,behaviour of sample at high humidity (DVS),[5]; high humidity,undergoes deliquescence
same,Thrombosis inhibition rate,"[6]; 10 mg/kg, oral gavage, rats",70.0%
same,"antithrombotic efficacy, Form I and dabigatran etexilate compared",[6]; rats,basically equivalent
same,logP,[7],> 3.38
same,Log D7.4,[7]; pH 7.4,2.06
CCCCCCOC(=O)NC(=N)c1ccc(CNC(=O)[C@@H]2CCCN2C(=O)[C@@H](CC(C)C)NCC(=O)OCC)cc1 [Form III],purity after storage,[8]; 60° C./sealed condition for 7 days,89.35%
same,purity before storage,[8]; before storage at 60° C./sealed condition,95.81%
CCCCCCOC(=O)NC(=N)c1ccc(CNC(=O)[C@@H]2CCCN2C(=O)[C@@H](CC(C)C)NCC(=O)OCC)cc1 [free alkali of the compound of formula II],aqueous solubility,[1]; water,insoluble in water
CCCCCCOC(=O)NC(=N)c1ccc(CNC(=O)[C@@H]2CCCN2C(=O)[C@@H](CC(C)C)NCC(=O)OCC)cc1 [dihydrochloride],aqueous solubility,[1]; water,excellent aqueous solubility
CCCCCCOC(=O)NC(=N)c1ccc(CNC(=O)[C@@H]2CCCN2C(=O)[C@@H](CC(C)C)NCC(=O)OCC)cc1 [monohydrochloride],aqueous solubility,[1]; water,excellent aqueous solubility
"CCCCCCOC(=O)N=C(N)c1ccc(NCc2nc3cc(C(=O)N(CCC(=O)OCC)c4ccccn4)ccc3n2C)cc1 [Dabigatran etexilate, reference compound]","antithrombotic efficacy, Form I and dabigatran etexilate compared",[6]; rats,basically equivalent
CC(C)C[C@@H](NCC(=O)O)C(=O)N1CCC[C@H]1C(=O)NCc1ccc(C(=N)N)cc1 [Compound V],blood drug levels of compound V compared with oral 5 mg/kg Form I,[2]; [9],comparable
same,antithrombotic effect compared with oral 5 mg/kg Form I,[6]; [9],comparable
CCCCCCOC(=O)NC(=N)c1ccc(CNC(=O)[C@@H]2CCCN2C(=O)[C@@H](CC(C)C)NCC(=O)OCC)cc1 [Form B of the monohydrochloride],Hygroscopicity,[3],(Hygroscopic)
same,Moisture adsorption content,[3],3.0 wt %
CCCCCCOC(=O)NC(=N)c1ccc(CNC(=O)[C@@H]2CCCN2C(=O)[C@@H](CC(C)C)NCC(=O)OCC)cc1 [Form A of the monohydrochloride],Moisture adsorption content,[3],0.5 wt %
